Source: paper PMC10704437, “Sterol-activated amyloid beta fibril formation” (The Journal of Biological Chemistry, 2023)
“And” between values parts separate entries of the source, which are not always exact repeats. Equal values may be shown once. Read-outs that look alike come from different tables or passages of the source.

How the values were obtained:
Aβ42 monomer = molecular target: T1, Aβ42 monomer (Homo sapiens, UniProt P05067); test: Sterol binding to Aβ42, equilibrium DHE fluorescence titrations
T1 construct: Small red spheres mark the Aβ42 peptide C-terminal residue, A42; purchased Sigma-Aldrich Corp
Protocol: CH ([27]) and CS ([28]) increase the rate of Aβ aggregation and CH is thought to stabilize fibrils ([29]); yet, the affinities of CH and its metabolites for the Aβ peptide monomer have not been determined. Here, CH and CS affinities for the Aβ42 monomer are established using dehydroergosterol (DHE)—a fluorescent CH analog ([30]) used as a competitive probe to determine CH and CS affinities. Aβ42 monomers were prepared as previously described ([31]) (see Methods). […] Under this condition, Aβ42 essentially quantitatively binds DHE until its concentration exceeds that of DHE, which results in a breakpoint in the titration curve that yields the stoichiometry. The arrow seen descending from the breakpoint indicates a stoichiometry of 1:1, which agrees well with the ∼1:1 CH-metabolite:Aβ stoichiometry estimated from analysis of senile plaques micro-dissected from AD-patient brain tissue ([15]).
Figure 1 Sterol binding to Aβ42at equilibrium.A, DHE affinity for monomeric Aβ4_2. […] Binding was detected via the binding-induced 4.4 (±0.2)-fold increase in DHE fluorescence (λex = 325 nm, λem= 375 nm). Fluorescence intensity, I, is plotted relative to the intensity at zero titrant, I0. Titrations were performed independently in triplicate and the line passing through the data is the least-squares fit to a single-binding-site model. B, Aβ42:DHE stoichiometry. […] C. DHE fluorescence (λex = 325 nm, λem = 375 nm) is plotted versus [Aβ42]/[DHE]. The line descending from the titration breakpoint indicates a stoichiometry of 1:1. C and D, CH and CS affinities. Affinities were determined by competitive binding versus DHE. […] C, was titrated with CH (5.0–500 nM, 0.05–5 × Kd) or CS (5.0–500 nM, 0.15–[…] × Kd). Binding was monitored via the decrease in DHE fluorescence (λex = 325, λem = 375) caused by DHE displacement from Aβ42. Controls ensured that <2.0% of Aβ42 oligomerized during the measurement. Titrations were performed in triplicate and averaged. The solid lines through the data represent least-squares fits to a competitive single-binding-site model. C and D, insets highlight the behavior of the titration over ligand concentrations that span their reported CMCs (indicated by arrows). […]
DHE/Aβ42 binding interactions were monitored via the binding-induced 4.4-fold change in DHE fluorescence (λex = 325 nm, λem= 375 nm). […]
The affinities of CH and CS for Aβ42 were determined in competitive binding studies versus DHE. Binding was detected via the fluorescence decrease (λex= 325 nm, λem = 375 nm) caused by DHE displacement. […] Imax = (fraction DHE-bound to peptide at zero competitive ligands)/4.4 — the fold fluorescence change associated with DHE dissociation, see Figure 1A.

Aβ42 = molecular target: T2, Aβ42 (Homo sapiens, UniProt P05067); test: Aβ42 fibril formation monitored by ThT fluorescence, NEF model fitting; type: biochemical; conditions: for Nucleation rate constant, NEF model: NEF fit of fibril formation progress curves; for Nucleation rate constant, NEF model / Elongation rate constant, forward / Elongation rate constant, reverse / Fragmentation rate constant: Aβ42 1.0 μM, ligand at saturation; for Elongation rate constant, forward / Elongation rate constant, reverse / Fragmentation rate constant: NEF fit; for increase of nucleation rate constant relative to the unliganded peptide: from NEF nucleation rate constants
T2 construct: Small red spheres mark the Aβ42 peptide C-terminal residue, A42; purchased Sigma-Aldrich Corp
From the text: Reactions were initiated by the addition of ligand (at saturation) or buffer (control) to a fresh solution of Aβ42 and ThT (see Fig. 3 Legend). Such progress curves are often fit using a generalized sigmoidal function and compared on the basis of lag-time length and elongation-phase slope. Here, progress curves are fit numerically to the Nucleation-Elongation-Fragmentation (NEF) model ([51], [52]), using Copasi ([53]). Numerical modeling allows one to assess whether a particular mechanism adequately predicts experimental behavior and provides rate constants for the steps of the mechanism that can be compared across peptide•ligand combinations to identify where and to what extent ligands induce change.
Figure 3 Formation of CH•, CS•, and unliganded Aβ42fibrils.A, fibril formation. Fibril formation was monitored via the fluorescence increase (λex = 450 nm, λem = 482 nm) associated with the binding of ThT, which binds Aβ oligomers ≥5-mers. […] C. Progress curves were performed in triplicate, averaged, and fit numerically using the NEF polymerization model (see Results and discussion).
The NEF model assumes a slow, energetically unfavorable event generates a polymerization nucleus that rapidly adds monomers (at the elongation rate) to form oligomers. The reaction accelerates in a geometric fashion as oligomer fragmentation produces new nuclei. The tenets of the model are embodied in Equations (1), (2), (3), which form the basis of the Copasi model ([53]).(1) 2m⇆knucrevknucforn (2) m+n⇆kelrevkelforo+n (3) o→kfragn where m is monomer concentration, n is the concentration of surfaces capable of adding monomer, and o is the concentration of peptides that are in the interior of the polymer and thus cannot add monomers. knuc, kel, and kfrag are the nucleation, elongation, and fragmentation rate constants.
Fibril formation was monitored via the binding-induced change in ThT fluorescence (λex = 450 nm, λem = 482 nm) ([76]). […] C. Reagents (peptide, CH, CS, and ThT) were prepared immediately prior to use. CH and CS were solubilized in neat DMSO. Progress curves were determined in triplicate, and data were fit using the Nucleation-Fragmentation-Elongation (NEF) model (see Results and discussion).

T1 sequence (P05067 672-713 limits assumed): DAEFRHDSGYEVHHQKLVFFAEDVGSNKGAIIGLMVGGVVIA
T2 sequence (P05067 672-713 limits assumed): as above

Compound: CC(C)CCC[C@@H](C)[C@H]1CC[C@H]2[C@@H]3CC=C4C[C@@H](OS(=O)(=O)O)CC[C@]4(C)[C@H]3CC[C@]12C [CS, cholesterol 3-sulfate]
- Kd (Aβ42 monomer): 36 nM
- enhanced affinity of CS over CH for Aβ42 (Aβ42 monomer; ratio of Kd values): 3.4 fold
- CS/CH nucleation rate constant ratio, experimental (Aβ42; CS•Aβ42 versus CH•Aβ42, calculated using Table 2 nucleation rate constants): 261 fold and 260 fold
- Nucleation rate constant, NEF model (Aβ42): 1.8 (0.3) × 10^−11 nM^−1 s^−1
- Elongation rate constant, forward (Aβ42): 860 (60) μM^−1 s^−1
- Elongation rate constant, reverse (Aβ42): 85 (1) s^−1
- Fragmentation rate constant (Aβ42): 4.3 (0.7) × 10^−11 s^−1
- increase of nucleation rate constant relative to the unliganded peptide (Aβ42): ~13,000 fold

Compound: CC(C)CCC[C@@H](C)[C@H]1CC[C@H]2[C@@H]3CC=C4C[C@@H](O)CC[C@]4(C)[C@H]3CC[C@]12C [CH, cholesterol]
- Kd (Aβ42 monomer; determined in DHE competition studies, DHE 10 nM, Aβ42 20 nM, K2PO4 50 mM, pH 7.4, 25 °C, read-out: Kd): 120 nM
- Nucleation rate constant, NEF model (Aβ42): 6.9 (0.2) × 10^−14 nM^−1 s^−1
- Elongation rate constant, forward (Aβ42): 830 (20) μM^−1 s^−1
- Elongation rate constant, reverse (Aβ42): 98 (1) s^−1
- Fragmentation rate constant (Aβ42): 5.6 (0.3) × 10^−11 s^−1
- increase of nucleation rate constant relative to the unliganded peptide (Aβ42): ~49 fold
